Measured values: ChEMBL document CHEMBL1137266, “4-Aminoquinoline melanin-concentrating hormone 1-receptor (MCH1R) antagonists” (Bioorg Med Chem Lett, 2006)

What was measured:
[1] = molecular target: T1, Melanin-concentrating hormone receptor 1 (Homo sapiens, UniProt Q99705); test: Displacement of 125I-[Phe13,Tyr19]-MCH from human MCH-R1
[2] = molecular target: T1, Melanin-concentrating hormone receptor 1; test: Stimulation of IP3-coupled mobilization of calcium in HEK293 cells expressing MCH-R1; type: functional, cell-based
[3] = molecular target: T2, Melanin-concentrating hormone receptor 2 (Homo sapiens, UniProt Q969V1); test: Inhibition of 125I-[Phe13,Tyr19]-MCH binding to human MCH-R2 at 2uM
[4] = molecular target: T1, Melanin-concentrating hormone receptor 1; test: Inhibition of 125I-[Phe13,Tyr19]-MCH binding to human MCH-R1; conditions: concentration not given here
[5] = molecular target: T2, Melanin-concentrating hormone receptor 2; test: Displacement of 125I-[Phe13,Tyr19]-MCH from human MCH-R2

T1 sequence (Q99705 whole entry): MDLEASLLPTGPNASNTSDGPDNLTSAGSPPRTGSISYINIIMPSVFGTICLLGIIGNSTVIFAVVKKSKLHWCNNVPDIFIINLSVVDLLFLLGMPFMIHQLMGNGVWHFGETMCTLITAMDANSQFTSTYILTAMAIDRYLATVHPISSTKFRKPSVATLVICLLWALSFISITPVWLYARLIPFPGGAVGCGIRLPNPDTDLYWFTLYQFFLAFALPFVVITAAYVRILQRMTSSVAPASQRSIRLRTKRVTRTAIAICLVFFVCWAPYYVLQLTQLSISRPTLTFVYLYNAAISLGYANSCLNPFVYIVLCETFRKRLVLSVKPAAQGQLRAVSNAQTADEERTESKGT
T2 sequence (Q969V1 whole entry): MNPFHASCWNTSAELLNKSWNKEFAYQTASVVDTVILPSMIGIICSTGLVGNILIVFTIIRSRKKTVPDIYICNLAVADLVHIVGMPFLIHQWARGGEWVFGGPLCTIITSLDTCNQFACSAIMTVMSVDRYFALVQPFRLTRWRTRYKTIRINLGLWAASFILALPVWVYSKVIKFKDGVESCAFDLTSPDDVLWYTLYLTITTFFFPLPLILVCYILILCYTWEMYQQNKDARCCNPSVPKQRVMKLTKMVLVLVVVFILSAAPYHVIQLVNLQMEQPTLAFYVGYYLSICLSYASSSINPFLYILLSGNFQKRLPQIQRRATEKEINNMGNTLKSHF

SMILES	IC50 [1] [nM]	EC50 [2] [nM]	inhibition [3] [%]	inhibition [4] [%]	IC50 [5] [nM]
CCCc1cc(N)c2cc(NC(=O)/C=C/c3ccc(Cl)cc3Cl)ccc2n1	6.6	904	< 50		
CCCc1cc(N)c2cc(NC(=O)c3ccccc3)ccc2n1			< 50	< 50	
CCCc1ccc(/C=C/C(=O)Nc2ccc3nc(CCC)cc(N)c3c2)cc1	4	3600	< 50		
CCCc1cc(N2CCC2)c2cc(NC(=O)/C=C/c3ccc(C(F)(F)F)cc3)ccc2n1	2.8	2500	< 50		
CCCc1cc(N)c2cc(NC(=O)/C=C/c3ccc(I)cc3)ccc2n1	2.3	280	< 50		
CCCc1cc(NC2CC2)c2cc(NC(=O)/C=C/c3ccc(C(F)(F)F)cc3)ccc2n1	40		< 50		
CCC(C)c1cc(N)c2cc(NC(=O)/C=C/c3ccc(C(F)(F)F)cc3)ccc2n1 (stereo not drawn)	0.3	44	< 50		
CCc1cc(N)c2cc(NC(=O)/C=C/c3ccc(C(F)(F)F)cc3)ccc2n1	1.2	110	< 50		
CC(C)(C)c1cc(N)c2cc(NC(=O)/C=C/c3ccc(C(F)(F)F)cc3)ccc2n1	0.3	29	< 50		
CCCCCc1cc(N)c2cc(NC(=O)/C=C/c3ccc(C(F)(F)F)cc3)ccc2n1	1.2	90	< 50		
CCCc1cc(N)c2cc(NC(=O)NCc3ccc(C(F)(F)F)cc3)ccc2n1	38	380	< 50		
CCCc1cc(N)c2cc(NC(=O)/C=C/c3ccc(N)cc3)ccc2n1	190		< 50		
CCCc1cc(NC2CCC2)c2cc(NC(=O)/C=C/c3ccc(C(F)(F)F)cc3)ccc2n1	18	270			960
CCCc1cc(N)c2cc(NC(=O)/C=C/c3ccc(SC)cc3)ccc2n1	9	71	< 50		
CCCc1cc(N)c2cc(NC(=O)/C=C/c3ccc(OC(C)=O)cc3)ccc2n1	95	630	< 50		
CCCc1cc(OC)c2cc(NC(=O)/C=C/c3ccc(C(F)(F)F)cc3)ccc2n1	26	360	< 50		
Nc1cc(-c2ccccc2)nc2ccc(NC(=O)/C=C/c3ccc(Cl)cc3)cc12	18.5	6600	< 50		
CCCc1cc(NC)c2cc(NC(=O)/C=C/c3ccc(C(F)(F)F)cc3)ccc2n1	1.5	150	< 50		
Nc1cc(C2CCCC2)nc2ccc(NC(=O)/C=C/c3ccc(C(F)(F)F)cc3)cc12	0.8	68	< 50		
CCCc1cc(N)c2cc(NC(=O)/C=C/c3ccc(C(F)(F)F)cc3)ccc2n1 (stereo in doubt; form 1) [listing 1 of 2 here]			< 50		
CCCc1cc(N)c2cc(NC(=O)/C=C/c3ccccc3)ccc2n1	1000		< 50		

SMILES	IC50 [1] [nM]	EC50 [2] [nM]	inhibition [3] [%]	inhibition [4] [%]	IC50 [5] [nM]
CCCc1cc(N)c2cc(NC(=O)/C=C/c3ccc(C)cc3)ccc2n1	9	71	< 50		
Cc1cc(N)c2cc(NC(=O)/C=C/c3ccc(C(F)(F)F)cc3)ccc2n1	8	140	< 50		
CCCc1cc(N)c2cc(NC(=O)Cc3ccc(C(F)(F)F)cc3)ccc2n1	4000		< 50		
CCCc1cc(N(C)C)c2cc(NC(=O)/C=C/c3ccc(C(F)(F)F)cc3)ccc2n1	43	300	< 50		
CCCCc1ccc(/C=C/C(=O)Nc2ccc3nc(CCC)cc(N)c3c2)cc1	45	740	< 50		
CCCc1cc(N)c2cc(N(C)C(=O)CCc3ccc(C(F)(F)F)cc3)ccc2n1	1700		< 50		
CCCc1cc(N)c2cc(NC(=O)c3ccc(C(F)(F)F)cc3)ccc2n1	10000		< 50		
CCCc1cc(N2CCCC2)c2cc(NC(=O)/C=C/c3ccc(C(F)(F)F)cc3)ccc2n1	17	2800	< 50		
CCCc1cc(N)c2cc(NC(=O)/C=C/c3ccc(C(F)(F)F)cc3)ccc2n1 (stereo in doubt; form 3) [listing 1 of 2 here]			< 50		
CCCc1cc(N)c2cc(NC(=O)/C=C/c3ccc(C(F)(F)F)cc3)ccc2n1 (stereo in doubt; form 2) [listing 1 of 2 here]	2	40			
CCCc1cc(N)c2cc(C(=O)NCCc3ccc(C(F)(F)F)cc3)ccc2n1	2700		< 50		
CCCCc1cc(N)c2cc(NC(=O)/C=C/c3ccc(C(F)(F)F)cc3)ccc2n1	1.5	210	< 50		
CCCc1cc(N)c2cc(NC(=O)/C=C/c3ccc(CC)cc3)ccc2n1	1.4	160	< 50		
CCCc1cc(N)c2cc(NC(=O)CCc3ccc(C(F)(F)F)cc3)ccc2n1	13	120	< 50		
CCCc1cc(N)c2cc(NC(=O)c3ccc(-c4ccc(Cl)cc4)cc3)ccc2n1	0.7	75	< 50		
CCCc1cc(N)c2cc(NC(=O)/C=C/c3ccc(-c4ccccc4)cc3)ccc2n1	1.1	118	< 50		
CCCc1cc(N)c2cc(NCCCc3ccc(C(F)(F)F)cc3)ccc2n1	180	1000	< 50		
CC(C)(C)Cc1cc(N)c2cc(NC(=O)/C=C/c3ccc(C(F)(F)F)cc3)ccc2n1	5.8	110	< 50		
CCCc1cc(N)c2cc(NC(=O)C3CCC(c4ccc(Cl)cc4)CC3)ccc2n1 (stereo not drawn)	4.4	370	< 50		
CCCc1cc(O)c2cc(NC(=O)/C=C/c3ccc(C(F)(F)F)cc3)ccc2n1			< 50	< 50	
CCCc1cc(N(CC)CC)c2cc(NC(=O)/C=C/c3ccc(C(F)(F)F)cc3)ccc2n1	1100		< 50		

SMILES	IC50 [1] [nM]	EC50 [2] [nM]	inhibition [3] [%]	inhibition [4] [%]	IC50 [5] [nM]
CCCc1cc(N)c2cc(NC(=O)/C=C/c3ccc(C(C)(C)C)cc3)ccc2n1	22	910	< 50		
Nc1cc(C2CCCCC2)nc2ccc(NC(=O)/C=C/c3ccc(C(F)(F)F)cc3)cc12	1.2	96	< 50		
CCCc1cc(N)c2cc(NC(=O)/C=C/c3cccc(Cl)c3)ccc2n1	1100		< 50		
Nc1cc(C2CCC2)nc2ccc(NC(=O)/C=C/c3ccc(C(F)(F)F)cc3)cc12	2	250	< 50		
CCCc1cc(N)c2cc(NC(=O)/C=C/c3ccc(C(F)(F)F)cc3)ccc2n1 (stereo in doubt; form 3) [listing 2 of 2 here]	1.3	60			
CCCc1cc(NCC)c2cc(NC(=O)/C=C/c3ccc(C(F)(F)F)cc3)ccc2n1	4.8	340	< 50		
CCCc1cc(N2CCCCC2)c2cc(NC(=O)/C=C/c3ccc(C(F)(F)F)cc3)ccc2n1	> 4000		< 50		
CCCc1cc(N)c2cc(NC(=O)/C=C/c3ccc(C(F)(F)F)cc3)ccc2n1 (stereo in doubt; form 2) [listing 2 of 2 here]			< 50		
CCCc1cc(N)c2cc(NC(=O)/C=C/c3ccc(Cl)c(Cl)c3)ccc2n1	60	990	< 50		
CCCc1cc(N)c2cc(NC(=O)/C=C/c3ccc(Cl)cc3)ccc2n1	6	96	< 50		
CCCc1cc(N)c2cc(NC(=O)/C=C/c3ccc(C(C)C)cc3)ccc2n1	2.9	520	< 50		
CCCc1cc(N)c2cc(NC(=O)/C=C/c3ccc(O)cc3)ccc2n1	1100		< 50		
CC(C)c1cc(N)c2cc(NC(=O)/C=C/c3ccc(C(F)(F)F)cc3)ccc2n1	2.1	160	< 50		
CCCc1cc(N)c2cc(NC(=O)/C=C/c3ccc(Br)cc3)ccc2n1	4	93	< 50		
CCCc1cc(N)c2cc(NC(=O)CCc3ccccc3)ccc2n1	8300		< 50		
CCCc1cc(N)c2cc(NC(=O)/C=C/c3ccc(C(F)(F)F)cc3)ccc2n1 (stereo in doubt; form 1) [listing 2 of 2 here]	1.3	61			
CCCc1cc(N)c2cc(NC(=O)c3ccc(-c4ccc(C(F)(F)F)cc4)cc3)ccc2n1	4.5	310	< 50		
CCCc1cc(N)c2cc(NC(=O)/C=C/c3ccc([N+](=O)[O-])cc3)ccc2n1	20	310	< 50		
CCCc1cc(N)c2cc(NC(=O)/C=C/c3ccccc3Cl)ccc2n1	120	500	< 50		
CCCc1cc(N)c2cc(NC(=O)/C=C/c3ccc(F)cc3)ccc2n1	130	200	< 50		
